One assay relates to Pyricularia oryzae. Nature of the assay: microbe, parasite or virus in culture. Format: cell-based. The following applies: 168 h, read-out: control.
The next assay deals with Phakopsora pachyrhizi. Briefly: Phakopsora pachyrhizi Test in Soybean (preventive spray). It is filed as in vivo. The following applies: preventive spray on Soybean plants, inoculated one day after treatment, disease severity vs untreated control. The protocol: Example 7: Phakopsora pachyrhizi Test in Soybean Compounds were dissolved in 2% dimethyl sulfoxide/acetone and then mixed with water containing an emulsifier to a calibrated spray volume of 50 mL. This 50 mL spray solution was poured into spray bottles for further applications. To test the preventive activity of compounds, healthy young Soybean plants, raised in the greenhouse, were sprayed with the active compound preparation at the stated application rates inside the spray cabinets using hollow cone nozzles. One day after treatment, the plants were inoculated with a spore suspension containing 2×10^5Phakopsora pachyrhizi conidia. The inoculated plants were then kept in a greenhouse chamber at 22-24° C. temperature and 80-90% relative humidity for disease expression. A visual assessment of the compound's performance was carried out by rating the disease severity (0-100% scale) on treated plants 3, 7, 10 and 15 days after application. Efficacy (% control) of the compounds was calculated by comparing the disease rating in the treatment with the one of the untreated control. The sprayed plants were also assessed for plant compatibility by recording symptoms like necrosis, chlorosis and stunting.

Drawing on US12677832B2, “Oxadiazole compounds for controlling or preventing phytopathogenic fungi” (PI INDUSTRIES LTD., priority 2019, dated 2026), this text covers inhibition of growth and pest or weed control for 33 compounds.

One may read the pest or weed control as the degree to which the test organism was suppressed or injured, in per cent. Read a high pest or weed control as a strong effect.

As to `Nc1cc[n+](CC(=O)c2ccc(-c3noc(C(F)(F)F)n3)cc2)cc1` [Compound 148, 4-amino-1-(2-oxo-2-(4-(5-(trifluoromethyl)-1,2,4-oxadiazol-3-yl)phenyl)ethyl)pyridin-1-ium bromide], in the assay with Pyricularia oryzae, the inhibition of growth at 300 ppm was not below 70%. On to `Cc1cnc([S+]([O-])CC(=O)c2ccc(-c3noc(C(F)(F)F)n3)cc2)s1` (stereo not shown) [Compound 83, 2-((5-methylthiazol-2-yl)sulfinyl)-1-(4-(5-(trifluoromethyl)-1,2,4-oxadiazol-3-yl)phenyl)ethan-1-one], for which, in the assay on Phakopsora pachyrhizi, the pest or weed control at 500 ppm is not below 70%. Further, the inhibition of growth at 300 ppm in the assay with Pyricularia oryzae was not below 70%. With `O=C(CSc1nccs1)c1ccc(-c2noc(C(F)(F)F)n2)cc1` [Compound 73, 2-(thiazol-2-ylthio)-1-(4-(5-(trifluoromethyl)-1,2,4-oxadiazol-3-yl)phenyl)ethan-1-one], the inhibition of growth at 300 ppm with Pyricularia oryzae is not below 70%. As for `Cn1ccc(OCC(=O)c2ccc(-c3noc(C(F)(F)F)n3)cc2)n1` [Compound 50, 2-((1-methyl-1H-pyrazol-3-yl)oxy)-1-(4-(5-(trifluoromethyl)-1,2,4-oxadiazol-3-yl)phenyl)ethan-1-one], the pest or weed control at 500 ppm in the assay on Phakopsora pachyrhizi is not below 70%. In the assay with Phakopsora pachyrhizi, `Cc1cccc(OCC(=O)c2ccc(-c3noc(C(F)(F)F)n3)cc2)c1` [Compound 10, 2-(m-tolyloxy)-1-(4-(5-(trifluoromethyl)-1,2,4-oxadiazol-3-yl)phenyl)ethan-1-one] yielded a pest or weed control at 500 ppm not below 70%. Still for that read-out and setting: in the case of `O=C(COc1ccc(F)cc1)c1ccc(-c2noc(C(F)(F)F)n2)cc1` [Compound 4, 2-(4-fluorophenoxy)-1-(4-(5-(trifluoromethyl)-1,2,4-oxadiazol-3-yl)phenyl)ethan-1-one] it was not below 70%; in that of `O=C(C[S+]([O-])c1cccc(F)c1)c1ccc(-c2noc(C(F)(F)F)n2)cc1` (stereo not shown) [Compound 87, 2-((3-fluorophenyl)sulfinyl)-1-(4-(5-(trifluoromethyl)-1,2,4-oxadiazol-3-yl)phenyl)ethan-1-one], not below 70%. Still for that read-out and setting: the result for `O=C(CSc1nc2ccccc2o1)c1ccc(-c2noc(C(F)(F)F)n2)cc1` [Compound 25, 2-(benzo[d]oxazol-2-ylthio)-1-(4-(5-(trifluoromethyl)-1,2,4-oxadiazol-3-yl)phenyl)ethan-1-one] reads not below 70%. Regarding `O=C(COc1ccc(Cl)c(C(F)(F)F)c1)c1ccc(-c2noc(C(F)(F)F)n2)cc1` [Compound 9, 2-(4-chloro-3-(trifluoromethyl)phenoxy)-1-(4-(5-(trifluoromethyl)-1,2,4-oxadiazol-3-yl)phenyl)ethan-1-one], the pest or weed control at 500 ppm with Phakopsora pachyrhizi was not below 70%. Still for that read-out and setting: in the case of `CC(SCC(=O)c1ccc(-c2noc(C(F)(F)F)n2)cc1)c1ccccc1` (stereo not shown) [Compound 58, 2-((1-phenylethyl)thio)-1-(4-(5-(trifluoromethyl)-1,2,4-oxadiazol-3-yl)phenyl)ethan-1-one] it was not below 70%. Still for that read-out and setting: the result for `O=C(CS(=O)(=O)c1ccc(F)c(F)c1)c1ccc(-c2noc(C(F)(F)F)n2)cc1` [Compound 96, 2-((3,4-difluorophenyl)sulfonyl)-1-(4-(5-(trifluoromethyl)-1,2,4-oxadiazol-3-yl)phenyl)ethan-1-one] reads not below 70%. For the compound `CC(C)S(=O)(=O)CC(=O)c1ccc(-c2noc(C(F)(F)F)n2)cc1` [Compound 106, 2-(isopropylsulfonyl)-1-(4-(5-(trifluoromethyl)-1,2,4-oxadiazol-3-yl)phenyl)ethan-1-one], the inhibition of growth at 300 ppm in the assay with Pyricularia oryzae was not below 70%. Compound `O=C(CSCc1ccccc1)c1ccc(-c2noc(C(F)(F)F)n2)cc1` [Compound 56, 2-(benzylthio)-1-(4-(5-(trifluoromethyl)-1,2,4-oxadiazol-3-yl)phenyl)ethan-1-one] registered a pest or weed control at 500 ppm in the assay on Phakopsora pachyrhizi not below 70%. In turn, `O=C(COc1cccnc1Cl)c1ccc(-c2noc(C(F)(F)F)n2)cc1` [Compound 46, 2-((2-chloropyridin-3-yl)oxy)-1-(4-(5-(trifluoromethyl)-1,2,4-oxadiazol-3-yl)phenyl)ethan-1-one] displayed a pest or weed control at 500 ppm in the assay on Phakopsora pachyrhizi not below 70%.

As for `CC(C)(C)SCC(=O)c1ccc(-c2noc(C(F)(F)F)n2)cc1` [Compound 70, 2-(tert-butylthio)-1-(4-(5-(trifluoromethyl)-1,2,4-oxadiazol-3-yl)phenyl)ethan-1-one], in the assay with Pyricularia oryzae, the inhibition of growth at 300 ppm was not below 70%. `O=C(COc1ccccc1F)c1ccc(-c2noc(C(F)(F)F)n2)cc1` [Compound 1, 2-(2-fluorophenoxy)-1-(4-(5-(trifluoromethyl)-1,2,4-oxadiazol-3-yl)phenyl)ethan-1-one]: in the assay on Phakopsora pachyrhizi, the pest or weed control at 500 ppm was not below 70%. The same measure, in the same setting: in the case of `O=C(COc1cccc(Cl)c1)c1ccc(-c2noc(C(F)(F)F)n2)cc1` [Compound 35, 2-(3-chlorophenoxy)-1-(4-(5-(trifluoromethyl)-1,2,4-oxadiazol-3-yl)phenyl)ethan-1-one] it was not below 70%; in that of `COc1ccccc1SCC(=O)c1ccc(-c2noc(C(F)(F)F)n2)cc1` [Compound 63, 2-((2-methoxyphenyl)thio)-1-(4-(5-(trifluoromethyl)-1,2,4-oxadiazol-3-yl)phenyl)ethan-1-one], not below 70%; in that of `O=C(C[S+]([O-])c1cccc(C(F)(F)F)c1)c1ccc(-c2noc(C(F)(F)F)n2)cc1` (stereo not shown) [Compound 85, 1-(4-(5-(trifluoromethyl)-1,2,4-oxadiazol-3-yl)phenyl)-2-((3-(trifluoromethyl)phenyl)sulfinyl)ethan-1-one], not below 70%. Still for that read-out and setting: in the case of `O=C(COc1ccc(F)nc1)c1ccc(-c2noc(C(F)(F)F)n2)cc1` [Compound 47, 2-((6-fluoropyridin-3-yl)oxy)-1-(4-(5-(trifluoromethyl)-1,2,4-oxadiazol-3-yl)phenyl)ethan-1-one] it was not below 70%.

As for `O=C(COc1ccc(F)cc1Cl)c1ccc(-c2noc(C(F)(F)F)n2)cc1` [Compound 19, 2-(2-chloro-4-fluorophenoxy)-1-(4-(5-(trifluoromethyl)-1,2,4-oxadiazol-3-yl)phenyl)ethan-1-one], in the assay on Phakopsora pachyrhizi, the pest or weed control at 500 ppm was not below 70%. `CC(c1ccccc1)[S+]([O-])CC(=O)c1ccc(-c2noc(C(F)(F)F)n2)cc1` (stereo not shown) [Compound 82, 2-((1-phenylethyl)sulfinyl)-1-(4-(5-(trifluoromethyl)-1,2,4-oxadiazol-3-yl)phenyl)ethan-1-one] gave a pest or weed control at 500 ppm with Phakopsora pachyrhizi not below 70%. Still for that read-out and setting: the result for `COc1ccc(CS(=O)(=O)CC(=O)c2ccc(-c3noc(C(F)(F)F)n3)cc2)cc1` [Compound 98, 2-((4-methoxybenzyl)sulfonyl)-1-(4-(5-(trifluoromethyl)-1,2,4-oxadiazol-3-yl)phenyl)ethan-1-one] reads not below 70%. The same measure, in the same setting: the result for `O=C(COc1ccc(Br)cc1)c1ccc(-c2noc(C(F)(F)F)n2)cc1` [Compound 5, 2-(4-bromophenoxy)-1-(4-(5-(trifluoromethyl)-1,2,4-oxadiazol-3-yl)phenyl)ethan-1-one] reads not below 70%. `O=C(CSCc1ccccc1)c1ccc(-c2noc(C(F)(F)F)n2)cn1` [Compound 118, 2-(benzylthio)-1-(5-(5-(trifluoromethyl)-1,2,4-oxadiazol-3-yl)pyridin-2-yl)ethan-1-one]: the inhibition of growth at 300 ppm with Pyricularia oryzae is not below 70%. In the assay with Phakopsora pachyrhizi, `O=C(COc1cc(F)cc(Cl)c1)c1ccc(-c2noc(C(F)(F)F)n2)cc1` [Compound 42, 2-(3-chloro-5-fluorophenoxy)-1-(4-(5-(trifluoromethyl)-1,2,4-oxadiazol-3-yl)phenyl)ethan-1-one] gave a pest or weed control at 500 ppm not below 70%. Still for that read-out and setting: in the case of `O=C(CS(=O)(=O)c1ccc(Cl)c(Cl)c1)c1ccc(-c2noc(C(F)(F)F)n2)cc1` [Compound 94, 2-((3,4-dichlorophenyl)sulfonyl)-1-(4-(5-(trifluoromethyl)-1,2,4-oxadiazol-3-yl)phenyl)ethan-1-one] it was not below 70%; in that of `O=C(CS(=O)(=O)c1cccc(C(F)(F)F)c1)c1ccc(-c2noc(C(F)(F)F)n2)cc1` [Compound 103, 1-(4-(5-(trifluoromethyl)-1,2,4-oxadiazol-3-yl)phenyl)-2-((3-(trifluoromethyl)phenyl)sulfonyl)ethan-1-one], not below 70%. As to `Cc1cccc(S(=O)(=O)CC(=O)c2ccc(-c3noc(C(F)(F)F)n3)cc2)c1` [Compound 110, 2-(m-tolylsulfonyl)-1-(4-(5-(trifluoromethyl)-1,2,4-oxadiazol-3-yl)phenyl)ethan-1-one], the inhibition of growth at 300 ppm with Pyricularia oryzae is not below 70%. In the case of `O=C(CS(=O)(=O)C1CCCCC1)c1ccc(-c2noc(C(F)(F)F)n2)cc1` [Compound 100, 2-(cyclohexylsulfonyl)-1-(4-(5-(trifluoromethyl)-1,2,4-oxadiazol-3-yl)phenyl)ethan-1-one], the pest or weed control at 500 ppm with Phakopsora pachyrhizi was not below 70%. On the same count and under the same terms, the result for `O=C(CSc1ccccc1)c1ccc(-c2noc(C(F)(F)F)n2)cc1` [Compound 60, 2-(phenylthio)-1-(4-(5-(trifluoromethyl)-1,2,4-oxadiazol-3-yl)phenyl)ethan-1-one] reads not below 70%.

In the case of `O=C(CSc1ccc(C(F)(F)F)cc1)c1ccc(-c2noc(C(F)(F)F)n2)cc1` [Compound 71, 1-(4-(5-(trifluoromethyl)-1,2,4-oxadiazol-3-yl)phenyl)-2-((4-(trifluoromethyl)phenyl)thio)ethan-1-one], the inhibition of growth at 300 ppm in the assay with Pyricularia oryzae is not below 70%. `O=C(COc1ccc(Br)c(F)c1)c1ccc(-c2noc(C(F)(F)F)n2)cc1` [Compound 12, 2-(4-bromo-3-fluorophenoxy)-1-(4-(5-(trifluoromethyl)-1,2,4-oxadiazol-3-yl)phenyl)ethan-1-one] gave a pest or weed control at 500 ppm in the assay with Phakopsora pachyrhizi not below 70%.
